This passage reports GI50 and TGI results from PubChem BioAssay (NCI).

Among the test systems are SF-295 CNS; U251 CNS; SK-MEL-28 melanoma; HOP-62 NSCLC; OVCAR-4 ovarian; TK-10 renal; ACHN renal; RXF 393 renal; HL-60(TB) leukemia; M14 melanoma.
Assay in all cases: inhibition of tumour cell growth, NCI panel, 48 h

Several values for one entry are separate records, joined by “and”; a condition that tells them apart may be missing. Equal values may be shown once.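 Five compound concentrations were applied to cells in 96-well plates for 48 hours; endpoints were derived by simple linear interpolation of the resulting dose-response curve. The concentration for 50% growth inhibition is given as GI50. TGI denotes the concentration required for complete inhibition of growth.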

On to `O=C(COc1ccc(/C=C2\Oc3ccccc3C2=O)cc1)Nc1nccs1`, for which the GI50 in the assay with SF-295 CNS is 41.4 µM; in the assay on U251 CNS, 40.6 µM; in the assay with SK-MEL-28 melanoma, over 100 µM; with HOP-62 NSCLC it was 85.3 µM; with OVCAR-4 ovarian, 70.4 µM; in the assay on TK-10 renal, 85.1 µM. Moreover, the GI50 was over 100 µM with ACHN renal and 0.354 µM in the assay on RXF 393 renal. Besides, the TGI in the assay with SF-295 CNS, in the assay on U251 CNS, with SK-MEL-28 melanoma, in the assay with HOP-62 NSCLC, in the assay with OVCAR-4 ovarian and in the assay on TK-10 renal was over 100 µM each time. The values for the TGI in the assay with ACHN renal and with RXF 393 renal were over 100 µM and 15.1 µM, respectively.

Take `CC(C)N(C(=O)C12C3C4C5C3C1(C(=O)N(C(C)C)C(C)C)C5(C#N)C42)C(C)C` (stereo not drawn): the TGI with HL-60(TB) leukemia was 39.4 µM; in the assay on SF-295 CNS it was over 100 µM; in the assay with M14 melanoma, over 100 µM; in the assay with U251 CNS, over 100 µM; in the assay on SK-MEL-28 melanoma it was over 100 µM; in the assay on HOP-62 NSCLC, over 100 µM. In addition, the TGI in the assay with OVCAR-4 ovarian, with TK-10 renal and in the assay on ACHN renal was over 100 µM each time.

For the molecule `CNC(=S)N/N=C1\CC(c2ccccc2)Oc2ccccc21` (stereo not drawn), the TGI with SF-295 CNS, with M14 melanoma, in the assay with U251 CNS, with SK-MEL-28 melanoma, in the assay with OVCAR-4 ovarian and in the assay on TK-10 renal was over 100 µM in each case. The TGI in the assay on ACHN renal and with RXF 393 renal was over 100 µM each time.

As to `[C-]#[O+].[Cl][Sn]([Cl])[Cl].[Cl][Sn]([Cl])[Cl].[Pt].c1ccc([PH+](c2ccccc2)c2ccccc2)cc1.c1ccc([PH+](c2ccccc2)c2ccccc2)cc1`, the GI50 was 25.4 µM in the assay with HL-60(TB) leukemia; 71.5 µM in the assay with SF-295 CNS; 30.7 µM with M14 melanoma; 15.3 µM in the assay on U251 CNS; 69.5 µM in the assay with SK-MEL-28 melanoma; 56.1 µM with OVCAR-4 ovarian. Besides, the GI50 was 25.5 µM in the assay with TK-10 renal, 26.4 µM in the assay with ACHN renal and 1.57 µM in the assay on RXF 393 renal. Also, the TGI is 69.1 µM in the assay with HL-60(TB) leukemia; over 100 µM in the assay on SF-295 CNS; over 100 µM in the assay with M14 melanoma; 42.5 µM in the assay on U251 CNS; over 100 µM in the assay on SK-MEL-28 melanoma; over 100 µM in the assay on OVCAR-4 ovarian. The TGI in the assay with TK-10 renal is 52.3 µM; with ACHN renal, over 100 µM; in the assay with RXF 393 renal, 9.82 µM.

For `C/C=C(\C)c1cc(=O)c2c(C)cc3c(c2o1)C(=O)c1c(O)c(C2CC(C)(N(C)C)C(O)C(C)O2)cc(C2CC(N(C)C)C(O)C(C)O2)c1C3=O` (stereo not drawn), the TGI in the assay with HL-60(TB) leukemia is 6.82 µM; with M14 melanoma, 0.312 µM; in the assay on U251 CNS it was 1.35 µM and 5.71 µM; in the assay on OVCAR-4 ovarian, 3.64 µM and 11.2 µM; in the assay with TK-10 renal it was 0.729 µM; in the assay with ACHN renal it was 0.504 µM. Moreover, the GI50 was 0.206 µM and 1.74 µM in the assay on U251 CNS; 0.156 µM and 1.39 µM in the assay on RXF 393 renal.

Regarding `CC1(C)CCC[C@@]2(C)C1C[C@H](O)[C@@]1(C)O[C@@](C)([C@H](O)CO)CCC21` (stereo partly drawn), the TGI was 48.1 µM in the assay on HL-60(TB) leukemia; over 100 µM with SF-295 CNS; over 100 µM in the assay on M14 melanoma; over 100 µM in the assay on U251 CNS; over 100 µM in the assay on SK-MEL-28 melanoma; over 100 µM in the assay with HOP-62 NSCLC. In addition, the TGI was over 100 µM in the assay with OVCAR-4 ovarian, over 100 µM in the assay on TK-10 renal and 74.9 µM in the assay with ACHN renal.

For the molecule `[N-]=[N+]=Nc1ccc(CCN2CCN(c3cccc(C(F)(F)F)c3)CC2)cc1I`, the TGI is 45.2 µM in the assay on HL-60(TB) leukemia; over 100 µM in the assay on SF-295 CNS; over 100 µM in the assay with M14 melanoma; over 100 µM with U251 CNS; over 100 µM with SK-MEL-28 melanoma; over 100 µM with OVCAR-4 ovarian. In addition, the TGI in the assay on TK-10 renal, in the assay with ACHN renal and in the assay on RXF 393 renal was over 100 µM each time.

In the case of `CC(N=C(N)N)C(=O)O` (stereo not drawn), the TGI in the assay with SF-295 CNS, in the assay with M14 melanoma, in the assay on U251 CNS, with SK-MEL-28 melanoma, in the assay on HOP-62 NSCLC and with OVCAR-4 ovarian was over 100 µM each time. In addition, the TGI in the assay on TK-10 renal, with ACHN renal and in the assay on RXF 393 renal was over 100 µM each time.

Consider `O=C(CCN1CCOCC1)Nc1ccc(F)cc1F`, for which the TGI in the assay with HL-60(TB) leukemia, in the assay with SF-295 CNS, with M14 melanoma, with U251 CNS, with SK-MEL-28 melanoma and with HOP-62 NSCLC was over 100 µM in each case. Also, the TGI with OVCAR-4 ovarian, in the assay with TK-10 renal and in the assay with ACHN renal was over 100 µM throughout.

For the molecule `O=C(Cn1c(=O)c(-c2ccccc2)nc2ccccc21)c1ccc(Cl)cc1`, the GI50 was 35.7 µM with SF-295 CNS; over 100 µM with M14 melanoma; 37.6 µM in the assay on U251 CNS; 42.5 µM with SK-MEL-28 melanoma; 33.4 µM with HOP-62 NSCLC; 33.4 µM with OVCAR-4 ovarian. Further, the GI50 in the assay on TK-10 renal was 25.7 µM; in the assay with ACHN renal, 38.6 µM. In addition, the TGI in the assay with SF-295 CNS, with M14 melanoma, in the assay with U251 CNS, with SK-MEL-28 melanoma, in the assay on HOP-62 NSCLC and in the assay with OVCAR-4 ovarian was over 100 µM each time. For the same molecule, the TGI in the assay with TK-10 renal and in the assay on ACHN renal was over 100 µM in each case.

In the case of `COc1cc([N+](=O)[O-])c(S(=O)(=O)O)cc1NS(=O)(=O)c1ccc(C)cc1`, the TGI with HL-60(TB) leukemia, with SF-295 CNS, in the assay on M14 melanoma, in the assay with U251 CNS, with SK-MEL-28 melanoma and in the assay on HOP-62 NSCLC was over 100 µM each time. Further, the TGI in the assay on OVCAR-4 ovarian, in the assay on TK-10 renal and in the assay on ACHN renal was over 100 µM throughout.

Regarding `COC(=O)[C@H]1[C@H]2C[C@@H]3c4[nH]c5cc(OC)ccc5c4CCN3C[C@H]2C[C@@H](OC(=O)c2cc(OC)c(OC)c(OC)c2)[C@@H]1OC`, the TGI in the assay with HL-60(TB) leukemia was 30.5 µM; in the assay with SF-295 CNS, 37.7 µM; with M14 melanoma it was 30.3 µM; in the assay with U251 CNS, 28.2 µM; in the assay on HOP-62 NSCLC, 28.1 µM; in the assay on OVCAR-4 ovarian, 27.8 µM. The TGI was 38 µM in the assay with TK-10 renal and over 100 µM in the assay on ACHN renal.
